From patent publication US9422293B2 (priority 2006, dated 2016)
Counter-ions that a name gives are not always drawn.

target: rat TRPV1 (Rattus norvegicus (Rat), UniProt O35433); settings: read-out: Rat IC50
Sequence (O35433 whole entry): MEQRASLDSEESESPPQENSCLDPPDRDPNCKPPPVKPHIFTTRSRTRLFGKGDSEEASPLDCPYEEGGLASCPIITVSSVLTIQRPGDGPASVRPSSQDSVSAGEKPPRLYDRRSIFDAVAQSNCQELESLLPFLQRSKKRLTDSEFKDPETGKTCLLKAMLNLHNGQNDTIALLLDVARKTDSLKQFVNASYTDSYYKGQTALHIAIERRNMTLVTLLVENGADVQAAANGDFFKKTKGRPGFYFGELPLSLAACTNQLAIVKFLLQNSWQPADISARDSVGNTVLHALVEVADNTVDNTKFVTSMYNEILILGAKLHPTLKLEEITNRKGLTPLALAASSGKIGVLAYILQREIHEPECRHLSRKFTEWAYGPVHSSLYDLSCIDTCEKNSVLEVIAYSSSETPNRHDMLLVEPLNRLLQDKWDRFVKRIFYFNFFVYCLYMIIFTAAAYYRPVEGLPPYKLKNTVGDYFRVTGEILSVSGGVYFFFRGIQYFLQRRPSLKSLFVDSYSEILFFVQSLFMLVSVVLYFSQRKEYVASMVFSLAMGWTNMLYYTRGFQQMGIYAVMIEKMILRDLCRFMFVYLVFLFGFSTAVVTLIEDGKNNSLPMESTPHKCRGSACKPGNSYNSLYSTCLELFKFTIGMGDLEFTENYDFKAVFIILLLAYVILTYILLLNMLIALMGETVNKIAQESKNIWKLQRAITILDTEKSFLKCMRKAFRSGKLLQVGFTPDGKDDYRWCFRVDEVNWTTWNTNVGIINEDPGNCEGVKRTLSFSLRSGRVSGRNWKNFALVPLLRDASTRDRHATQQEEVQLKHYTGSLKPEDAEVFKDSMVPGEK

Question: `Cc1cnc(Nc2nc(C(C)C)nc3c2CCN(c2ncccc2C(F)(F)F)CC3)cn1` [Example 187, 2-(1-Methylethyl)-N-(5-methylpyrazin-2-yl)-7-[3-(trifluoromethyl)pyridin-2-yl]-6,7,8,9-tetrahydro-5H-pyrimido[4,5-d]azepin-4-amine hydrochloride salt] was tested. Which IC50 did it give?
Answer: 2850 nM

Question: `CC(C)(C)c1ccc(Nc2nc(-c3ccco3)nc3c2CCN(c2ncccc2C(F)(F)F)CC3)cc1` [Example 145, N-[4-(1,1-Dimethylethyl)phenyl]-2-furan-2-yl-7-[3-(trifluoromethyl)pyridin-2-yl]-6,7,8,9-tetrahydro-5H-pyrimido[4,5-d]azepin-4-amine] was tested. Which IC50 did it give?
Answer: 240 nM

Question: For `OC[C@H]1CCCN1c1nc2c(c(Nc3ccc(C(F)(F)F)cc3)n1)CCN(c1ncccc1C(F)(F)F)CC2` [Example 261, [(2R)-1-(4-{[4-(Trifluoromethyl)phenyl]amino}-7-[3-(trifluoromethyl)pyridin-2-yl]-6,7,8,9-tetrahydro-5H-pyrimido[4,5-d]azepin-2-yl)pyrrolidin-2-yl]methanol hydrochloride salt], which IC50 is on record?
Answer: 340 nM

Question: Which IC50 does the source give for `Cc1cc(N)cnc1N1CCc2nc(C(C)C)nc(Nc3ccc(C(F)(F)F)cc3)c2CC1` [Example 83, [7-(5-Amino-3-methyl-pyridin-2-yl)-2-isopropyl-6,7,8,9-tetrahydro-5H-pyrimido[4,5-d]azepin-4-yl]-(4-trifluoromethyl-phenyl)-amine] here?
Answer: 990 nM

Question: With `FC(F)(F)c1ccc(Nc2ncnc3c2CCN(c2ncccc2C(F)(F)F)CC3)cc1` [Example 2, (4-Trifluoromethyl-phenyl)-[7-(3-trifluoromethyl-pyridin-2-yl)-6,7,8,9-tetra-hydro-5H-pyrimido[4,5-d]azepin-4-yl]-amine] as the molecule, how does the IC50 read?
Answer: 790 nM

Question: How did the IC50 turn out when `CCOc1nc2c(c(Nc3ccc(C(F)(F)F)cc3)n1)CCN(c1ncccc1C(F)(F)F)CC2` [Example 345, 2-(Ethyloxy)-N-[4-(trifluoromethyl)phenyl]-7-[3-(trifluoromethyl)pyridin-2-yl]-6,7,8,9-tetrahydro-5H-pyrimido[4,5-d]azepin-4-amine trifluoroacetic acid salt] was run?
Answer: 190 nM

Question: For `CN(C)c1nc2c(c(Nc3ccc(C(C)(C)C#N)cc3)n1)CCN(c1ncccc1C(F)(F)F)CC2` [Example 65B, 2-{4-[2-Dimethylamino-7-(3-trifluoromethyl-pyridin-2-yl)-6,7,8,9-tetrahydro-5H-pyrimido[4,5-d]azepin-4-ylamino]-phenyl}-2-methyl-propionitrile trifluoroacetic acid salt], which IC50 is on record?
Answer: 650 nM

Question: Which IC50 does the source give for `COC(=O)c1ccc(Nc2nc(N(C)C)nc3c2CCN(c2ncccc2C(F)(F)F)CC3)cc1` [Example 77B, 4-[2-Dimethylamino-7-(3-trifluoromethyl-pyridin-2-yl)-6,7,8,9-tetrahydro-5H-pyrimido[4,5-d]azepin-4-ylamino]-benzoic acid methyl ester trifluoroacetic acid salt] here?
Answer: 580 nM

Question: With `CC(C)N1CCN(c2nc3c(c(Nc4ccc(C(F)(F)F)cc4)n2)CCN(c2ncccc2C(F)(F)F)CC3)CC1` [Example 60B, [2-(4-Isopropyl-piperazin-1-yl)-7-(3-trifluoromethyl-pyridin-2-yl)-6,7,8,9-tetrahydro-5H-pyrimido[4,5-d]azepin-4-yl]-(4-trifluoromethyl-phenyl)-amine trifluoroacetic acid salt] as the molecule, how does the IC50 read?
Answer: 140 nM

Question: With `FC(F)(F)c1ccc(Nc2nc(N3CCOCC3)nc3c2CCN(c2ncccc2C(F)(F)F)CC3)nc1` [Example 41, [2-Morpholin-4-yl-7-(3-trifluoromethyl-pyridin-2-yl)-6,7,8,9-tetrahydro-5H-pyrimido[4,5-d]azepin-4-yl]-(5-trifluoromethyl-pyridin-2-yl)-amine] as the molecule, how does the IC50 read?
Answer: 49 nM

Question: `CC(=O)c1ccc(Nc2nc(N3CCCCC3)nc3c2CCN(c2ncccc2C(F)(F)F)CC3)cc1` [Example 156, 1-[4-({2-Piperidin-1-yl-7-[3-(trifluoromethyl)pyridin-2-yl]-6,7,8,9-tetrahydro-5H-pyrimido[4,5-d]azepin-4-yl}amino)phenyl]ethanone] was tested. Which IC50 did it give?
Answer: 590 nM

Question: Which IC50 does the source give for `CC(C)c1nc2c(c(Nc3ccc(C(C)(O)C(F)(F)F)cc3)n1)CCN(c1ncccc1C(F)(F)F)CC2` (stereo not shown) [Example 179, 1,1,1-Trifluoro-2-[4-({2-(1-methylethyl)-7-[3-(trifluoromethyl)pyridin-2-yl]-6,7,8,9-tetrahydro-5H-pyrimido[4,5-d]azepin-4-yl}amino)phenyl]propan-2-ol] here?
Answer: 1340 nM

Question: With `FC1(F)CN(c2nc3c(c(Nc4ccc(C(F)(F)F)cc4)n2)CCN(c2ncccc2C(F)(F)F)CC3)C1` [Example 241, 2-(3,3-Difluoroazetidin-1-yl)-N-[4-(trifluoromethyl)phenyl]-7-[3-(trifluoromethyl)pyridin-2-yl]-6,7,8,9-tetrahydro-5H-pyrimido[4,5-d]azepin-4-amine] as the molecule, how does the IC50 read?
Answer: 170 nM

Question: Which IC50 does the source give for `CC(C)c1nc2c(c(Nc3ccc(C(C)(C)C)c([N+](=O)[O-])c3)n1)CCN(c1ncccc1C(F)(F)F)CC2` [Example 143, N-[4-(1,1-Dimethylethyl)-3-nitrophenyl]-2-(1-methylethyl)-7-[3-(trifluoromethyl)pyridin-2-yl]-6,7,8,9-tetrahydro-5H-pyrimido[4,5-d]azepin-4-amine] here?
Answer: 130 nM

Question: How did the IC50 turn out when `FC(F)(F)c1ccc(Nc2nc(-c3cccnc3)nc3c2CCN(c2ncccc2C(F)(F)F)CC3)cc1` [Example 176, 2-Pyridin-3-yl-N-[4-(trifluoromethyl)phenyl]-7-[3-(trifluoromethyl)pyridin-2-yl]-6,7,8,9-tetrahydro-5H-pyrimido[4,5-d]azepin-4-amine trifluoroacetic acid salt] was run?
Answer: 810 nM

Question: For `CC(C)(C)c1ccc(Nc2nc(CN3CCCCC3)nc3c2CCN(c2ncccc2C(F)(F)F)CC3)cc1` [Example 66B, (4-tert-Butyl-phenyl)-[2-piperidin-1-ylmethyl-7-(3-trifluoromethyl-pyridin-2-yl)-6,7,8,9-tetrahydro-5H-pyrimido[4,5-d]azepin-4-yl]-amine trifluoroacetic acid salt], which IC50 is on record?
Answer: 930 nM

Question: `FC(F)(F)c1ccc(Nc2nc(-c3ccncc3)nc3c2CCN(c2ncccc2C(F)(F)F)CC3)cc1Cl` [Example 169, N-[3-Chloro-4-(trifluoromethyl)phenyl]-2-pyridin-4-yl-7-[3-(trifluoromethyl)pyridin-2-yl]-6,7,8,9-tetrahydro-5H-pyrimido[4,5-d]azepin-4-amine] was tested. Which IC50 did it give?
Answer: 1010 nM

Question: `FC(F)(F)c1ccc(Nc2nc(N3CCCCCC3)nc3c2CCN(c2ncccc2C(F)(F)F)CC3)cn1` [Example 223, 2-Azepan-1-yl-7-[3-(trifluoromethyl)pyridin-2-yl]-N-[6-(trifluoromethyl)pyridin-3-yl]-6,7,8,9-tetrahydro-5H-pyrimido[4,5-d]azepin-4-amine] was tested. Which IC50 did it give?
Answer: 30 nM

Question: For `CC(C)c1nc2c(c(NC3CCC(C(C)(C)C)CC3)n1)CCN(c1ncccc1C(F)(F)F)CC2` (stereo not shown) [Example 122, N-[4-(1,1-Dimethylethyl)cyclohexyl]-2-(1-methylethyl)-7-[3-(trifluoromethyl)pyridin-2-yl]-6,7,8,9-tetrahydro-5H-pyrimido[4,5-d]azepin-4-amine], which IC50 is on record?
Answer: 190 nM

Question: Which IC50 does the source give for `CC(C)c1nc2c(c(Nc3ccc(Cl)c(Cl)c3)n1)CCN(c1ncccc1C(F)(F)F)CC2` [Example 109, (3,4-Dichloro-phenyl)-[2-isopropyl-7-(3-trifluoromethyl-pyridin-2-yl)-6,7,8,9-tetrahydro-5H-pyrimido[4,5-d]azepin-4-yl]-amine] here?
Answer: 580 nM

Question: With `CC(C)c1nc2c(c(Nc3ccc(C(F)(F)F)cc3)n1)CCN(c1ccccc1[N+](=O)[O-])CC2` [Example 85, [2-Isopropyl-7-(2-nitro-phenyl)-6,7,8,9-tetrahydro-5H-pyrimido[4,5-d]azepin-4-yl]-(4-trifluoromethyl-phenyl)-amine] as the molecule, how does the IC50 read?
Answer: > 6700 nM

Question: With `CC(C)c1ccc(Nc2nc(C(C)C)nc3c2CCN(c2ncccc2C(F)(F)F)CC3)cc1` [Example 137, 2-(1-Methylethyl)-N-[4-(1-methylethyl)phenyl]-7-[3-(trifluoromethyl)pyridin-2-yl]-6,7,8,9-tetrahydro-5H-pyrimido[4,5-d]azepin-4-amine] as the molecule, how does the IC50 read?
Answer: 60 nM

Question: For `CC(=O)c1ccc(Nc2nc(N3CCOCC3)nc3c2CCN(c2ncccc2C(F)(F)F)CC3)cc1` [Example 380, 1-[4-({2-Morpholin-4-yl-7-[3-(trifluoromethyl)pyridin-2-yl]-6,7,8,9-tetrahydro-5H-pyrimido[4,5-d]azepin-4-yl}amino)phenyl]ethanone], which IC50 is on record?
Answer: 230 nM

Question: `FC(F)(F)c1ccc(Nc2nc(NCC3CC3)nc3c2CCN(c2ncccc2C(F)(F)F)CC3)cc1` [Example 95B, N^2-Cyclopropylmethyl-N^4-(4-trifluoromethyl-phenyl)-7-(3-trifluoromethyl-pyridin-2-yl)-6,7,8,9-tetrahydro-5H-pyrimido[4,5-d]azepine-2,4-diamine trifluoroacetic acid salt] was tested. Which IC50 did it give?
Answer: 82 nM

Question: `Cc1cc([N+](=O)[O-])cnc1N1CCc2nc(C(C)C)nc(Nc3ccc(C(F)(F)F)cc3)c2CC1` [Example 87, [2-Isopropyl-7-(3-methyl-5-nitro-pyridin-2-yl)-6,7,8,9-tetrahydro-5H-pyrimido[4,5-d]azepin-4-yl]-(4-trifluoromethyl-phenyl)-amine] was tested. Which IC50 did it give?
Answer: 350 nM

Question: With `CN(c1nc2c(c(Nc3ccc(C(F)(F)F)nc3)n1)CCN(c1ncccc1C(F)(F)F)CC2)C1CCCCC1` [Example 275, N^2-Cyclohexyl-N^2-methyl-7-[3-(trifluoromethyl)pyridin-2-yl]-N^4-[6-(trifluoromethyl)pyridin-3-yl]-6,7,8,9-tetrahydro-5H-pyrimido[4,5-d]azepine-2,4-diamine] as the molecule, how does the IC50 read?
Answer: 190 nM

Question: Which IC50 does the source give for `Cc1cc(C(F)(F)F)ccc1Nc1nc(SCC(C)O)nc2c1CCN(c1ncccc1C(F)(F)F)CC2` (stereo not shown) [Example 367, 1-[(4-{[2-Methyl-4-(trifluoromethyl)phenyl]amino}-7-[3-(trifluoromethyl)pyridin-2-yl]-6,7,8,9-tetrahydro-5H-pyrimido[4,5-d]azepin-2-yl)sulfanyl]propan-2-ol] here?
Answer: > 6670 nM

Question: How did the IC50 turn out when `FC(F)(F)c1ccc(Nc2nc(-c3ccccc3)nc3c2CCN(c2ncccc2C(F)(F)F)CC3)nc1` [Example 22, [2-Phenyl-7-(3-trifluoromethyl-pyridin-2-yl)-6,7,8,9-tetrahydro-5H-pyrimido[4,5-d]azepin-4-yl]-(5-trifluoromethyl-pyridin-2-yl)-amine] was run?
Answer: 130 nM
